Source: the NIST ThermoML archive (doi:10.1021/je500053c)

What was measured:
[1] = xn = mol fraction of the nth substance listed; details: 101 kPa, Liquid, Vibrating tube method
[2] = 101.33 kPa, Liquid, Vibrating tube method

O [water] + CCCCn1cc[n+](C)c1.CS(=O)(=O)[O-]
[1], x2 = 0
Details | mass density [kg/m3]
333.15 K | 983.2
343.15 K | 977.8
358.15 K | 968.3

CCCCn1cc[n+](C)c1.CS(=O)(=O)[O-] [1-butyl-3-methylimidazolium methanesulfonate] + O
mass density [kg/m3], [1]
Details | x1 = 0.025 | x1 = 0.05 | x1 = 0.075 | x1 = 0.1 | x1 = 0.148 | x1 = 0.199 | x1 = 0.251 | x1 = 0.298 | x1 = 0.346 | x1 = 0.441
298.15 K | 1038.1 | 1068.4 | 1089.3 | 1104.5 | 1123.9 | 1137.1 | 1145.7 | 1151.3 | 1154.9 | 1160.6
313.15 K | 1031.2 | 1059.7 | 1079.7 | 1093.5 | 1113.6 | 1126.8 | 1135.5 | 1141.2 | 1144.8 | 1150.6
323.15 K | 1025.9 | 1053.6 | 1073.1 | 1087.6 | 1106.6 | 1119.9 | 1128.6 | 1134.4 | 1138.1 | 1144
333.15 K | 1020.1 | 1047.1 | 1066.2 | 1080.5 | 1099.5 | 1112.9 | 1121.7 | 1127.6 | 1131.4 | 1137.3
343.15 K | 1013.9 | 1040.3 | 1059.2 | 1073.3 | 1092.3 | 1105.7 | 1114.7 | 1120.7 | 1124.6 | 1130.7
358.15 K | 1003.9 | 1029.7 | 1048.2 | 1062.3 | 1081.2 | 1094.9 | 1104.1 | 1110.3 | 1114.4 | 1120.7

CCCCCC[n+]1ccn(C)c1.O=S(=O)([N-]S(=O)(=O)C(F)(F)F)C(F)(F)F
[2]
Details | mass density [kg/m3]
288.15 K | 1381.4
298.15 K | 1372
308.15 K | 1362.7
318.15 K | 1353.5
